Source: ChEMBL document CHEMBL1201862, “PubChem BioAssay data set” (2004)
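Five compound concentrations were applied to cells in 96-well plates for 48 hours; endpoints were derived by simple linear interpolation of the resulting dose-response curve. The concentration for 50% growth inhibition is given as GI50.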 The source made the active and inactive calls. Rule as the data show it: active = GI50 up to about 1.1 µM and inactive = higher.

Assays:
Assay in all cases: NCI anticancer screen, dose series, 48 h
HT-29 = test system: HT-29
SNB-75 = test system: SNB-75
NCI/ADR-RES = test system: NCI/ADR-RES
BT-549 = test system: BT-549
NCI-H226 = test system: NCI-H226
CAKI-1 = test system: CAKI-1
K562 = test system: K562
UACC-257 = test system: UACC-257
IGROV-1 = test system: IGROV-1
T47D = test system: T47D
CCRF-CEM = test system: CCRF-CEM
KM12 = test system: KM12
TK-10 = test system: TK-10
Hs-578T = test system: Hs-578T
HL-60 = test system: HL-60
RXF 393 = test system: RXF 393
SK-MEL-28 = test system: SK-MEL-28
SK-OV-3 = test system: SK-OV-3
SF-295 = test system: SF-295

Measured: GI50

O=c1[nH]c(=O)n(C2CC(O)C(CO)O2)cc1OCc1ccccc1 (centres undefined)
inactive: HT-29 > 100 µM | SNB-75 > 100 µM | NCI/ADR-RES > 100 µM | BT-549 > 100 µM | NCI-H226 > 100 µM | CAKI-1 > 100 µM | K562 > 100 µM | UACC-257 > 100 µM | IGROV-1 > 100 µM | T47D > 100 µM | CCRF-CEM > 100 µM | KM12 > 100 µM | TK-10 > 100 µM | Hs-578T > 100 µM | HL-60 > 100 µM | RXF 393 > 100 µM | SK-MEL-28 > 100 µM | SK-OV-3 > 100 µM

Cn1c2ccccc2n2c3ncccc3/c(=N/CCCC(=O)O)c(C#N)c12
inactive: HT-29 > 100 µM | SNB-75 > 100 µM | NCI/ADR-RES > 100 µM | BT-549 > 100 µM | NCI-H226 > 100 µM | CAKI-1 > 100 µM | K562 > 100 µM | IGROV-1 > 100 µM | T47D > 100 µM | CCRF-CEM > 100 µM | KM12 > 100 µM | Hs-578T > 100 µM | HL-60 > 100 µM | RXF 393 > 100 µM | SK-MEL-28 > 100 µM | SF-295 > 100 µM | SK-OV-3 > 100 µM

Cc1nc2cc(F)c(F)cc2[nH]c1=O
inactive: HT-29 > 100 µM | SNB-75 > 100 µM | NCI/ADR-RES > 100 µM | BT-549 > 100 µM | NCI-H226 > 100 µM | CAKI-1 > 100 µM | K562 > 100 µM | UACC-257 > 100 µM | T47D > 100 µM | CCRF-CEM > 100 µM | KM12 > 100 µM | TK-10 > 100 µM | Hs-578T 77.6 µM | HL-60 > 100 µM | RXF 393 > 100 µM | SK-MEL-28 > 100 µM | SF-295 > 100 µM | SK-OV-3 > 100 µM

C1=CC2(C=CC13O[C@H](C1CCCCC1)[C@@H](C1CCCCC1)O3)O[C@H](C1CCCCC1)[C@@H](C1CCCCC1)O2
inactive: HT-29 > 50 µM | SNB-75 > 50 µM | NCI/ADR-RES > 50 µM | BT-549 > 50 µM | NCI-H226 > 50 µM | CAKI-1 > 50 µM | K562 > 50 µM | UACC-257 > 50 µM | IGROV-1 > 50 µM | T47D > 50 µM | KM12 > 50 µM | TK-10 > 50 µM | Hs-578T > 50 µM | HL-60 > 50 µM | RXF 393 > 50 µM | SK-MEL-28 > 50 µM | SF-295 > 50 µM | SK-OV-3 > 50 µM

CCCC1(NC(=O)C(F)(F)F)CC(OC)OC2COC(c3ccccc3)OC21 (centres undefined)
inactive: SNB-75 > 100 µM | NCI/ADR-RES 29.3 µM | BT-549 58.6 µM | NCI-H226 > 100 µM | CAKI-1 6.31 µM | K562 35.3 µM | UACC-257 63.1 µM | IGROV-1 > 100 µM | T47D 59.4 µM | CCRF-CEM 66.4 µM | Hs-578T > 100 µM | HL-60 27.1 µM | RXF 393 94.6 µM | SK-MEL-28 > 100 µM | SF-295 50.7 µM | SK-OV-3 70 µM

COC1=NC(NC2OCC(O)C(O)C2O)=C(NC(C)=O)CN1C (centres undefined)
inactive: HT-29 > 100 µM | SNB-75 > 100 µM | NCI/ADR-RES > 100 µM | BT-549 > 100 µM | NCI-H226 > 100 µM | CAKI-1 > 100 µM | K562 > 100 µM | T47D > 100 µM | CCRF-CEM > 100 µM | KM12 > 100 µM | TK-10 > 100 µM | Hs-578T > 100 µM | HL-60 > 100 µM | RXF 393 > 100 µM | SK-MEL-28 > 100 µM | SF-295 > 100 µM | SK-OV-3 > 100 µM
